Laboratory results taken from paper PMC10377353, “Targeted Destruction of S100A4 Inhibits Metastasis of Triple Negative Breast Cancer Cells” (Biomolecules, 2023).

Target: T1, S100A4 (Homo sapiens, UniProt P26447)
T1 construct: recombinant human (rh)S100A4, pET-15b, E. coli BL21 (DE3); with nonmuscle myosin IIA C-terminal fragment (rC-NMIIA, 149 terminal amino acids)
Assay: resonant mirror biosensor (SPR-type), inhibition of rhS100A4 binding to immobilised rC-NMIIA

T1 sequence (P26447 2-101): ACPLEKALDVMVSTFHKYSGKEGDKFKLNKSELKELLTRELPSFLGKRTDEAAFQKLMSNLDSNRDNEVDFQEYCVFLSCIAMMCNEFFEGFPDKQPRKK
T1 sequence (P35579 2-1960 partner): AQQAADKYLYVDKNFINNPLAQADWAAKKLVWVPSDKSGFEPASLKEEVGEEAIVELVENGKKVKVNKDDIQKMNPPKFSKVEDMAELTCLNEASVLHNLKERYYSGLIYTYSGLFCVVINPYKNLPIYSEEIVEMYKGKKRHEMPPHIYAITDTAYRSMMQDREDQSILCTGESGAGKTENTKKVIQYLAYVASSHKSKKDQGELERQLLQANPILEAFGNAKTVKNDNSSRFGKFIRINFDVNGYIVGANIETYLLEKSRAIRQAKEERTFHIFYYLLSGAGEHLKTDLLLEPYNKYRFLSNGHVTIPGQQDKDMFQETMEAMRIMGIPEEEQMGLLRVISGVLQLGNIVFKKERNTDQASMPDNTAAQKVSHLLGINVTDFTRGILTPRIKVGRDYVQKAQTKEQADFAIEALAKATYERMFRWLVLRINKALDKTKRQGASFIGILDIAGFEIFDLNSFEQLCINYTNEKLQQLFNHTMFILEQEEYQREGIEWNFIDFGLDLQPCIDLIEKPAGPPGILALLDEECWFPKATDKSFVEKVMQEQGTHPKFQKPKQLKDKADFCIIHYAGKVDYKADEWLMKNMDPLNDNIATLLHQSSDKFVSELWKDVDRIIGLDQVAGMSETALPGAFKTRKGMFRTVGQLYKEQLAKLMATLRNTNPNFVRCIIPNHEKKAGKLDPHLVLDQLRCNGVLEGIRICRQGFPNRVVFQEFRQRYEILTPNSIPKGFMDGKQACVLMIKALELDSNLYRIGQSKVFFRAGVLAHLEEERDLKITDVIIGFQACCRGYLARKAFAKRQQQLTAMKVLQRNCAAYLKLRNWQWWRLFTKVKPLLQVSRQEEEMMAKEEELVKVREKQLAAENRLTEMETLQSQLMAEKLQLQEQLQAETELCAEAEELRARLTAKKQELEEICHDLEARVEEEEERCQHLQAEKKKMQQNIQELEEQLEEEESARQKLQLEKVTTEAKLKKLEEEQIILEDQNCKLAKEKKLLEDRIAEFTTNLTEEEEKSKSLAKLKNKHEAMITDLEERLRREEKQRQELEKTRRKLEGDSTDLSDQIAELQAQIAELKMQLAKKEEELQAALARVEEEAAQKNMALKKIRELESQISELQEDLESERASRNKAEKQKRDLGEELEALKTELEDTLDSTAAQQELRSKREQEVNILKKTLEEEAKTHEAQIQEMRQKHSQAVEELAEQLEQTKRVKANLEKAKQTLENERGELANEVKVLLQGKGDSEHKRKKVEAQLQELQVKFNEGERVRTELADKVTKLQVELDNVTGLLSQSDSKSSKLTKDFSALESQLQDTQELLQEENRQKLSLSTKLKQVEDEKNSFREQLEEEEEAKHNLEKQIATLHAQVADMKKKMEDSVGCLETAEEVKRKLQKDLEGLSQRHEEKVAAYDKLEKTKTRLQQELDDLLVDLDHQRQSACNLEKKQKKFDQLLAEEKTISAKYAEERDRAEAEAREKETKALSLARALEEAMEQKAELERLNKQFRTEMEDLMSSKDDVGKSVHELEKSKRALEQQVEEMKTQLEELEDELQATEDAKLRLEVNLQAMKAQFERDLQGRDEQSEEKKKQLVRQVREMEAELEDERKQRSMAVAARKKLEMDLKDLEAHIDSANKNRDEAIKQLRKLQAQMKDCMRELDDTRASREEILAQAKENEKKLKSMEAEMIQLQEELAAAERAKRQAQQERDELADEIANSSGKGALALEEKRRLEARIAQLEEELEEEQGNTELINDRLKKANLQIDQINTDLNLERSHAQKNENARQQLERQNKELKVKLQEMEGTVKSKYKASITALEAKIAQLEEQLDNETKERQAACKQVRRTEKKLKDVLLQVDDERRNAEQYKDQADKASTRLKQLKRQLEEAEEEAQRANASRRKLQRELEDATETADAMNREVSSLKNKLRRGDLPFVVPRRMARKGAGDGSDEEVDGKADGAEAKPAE

## COC1(OC)[C@@]2(Cl)C(Cl)=C(Cl)[C@]1(Cl)[C@@H]1C(=O)N(c3ccccc3C)C(=O)[C@@H]12 [CT070909]
  inhibition at 33 µM: > 90%
